Test systems include DMS 114 small cell lung; OVCAR-4 ovarian; LXFL 529 NSCLC; OVCAR-5 ovarian; DMS 273 small cell lung; OVCAR-8 ovarian; DLD-1 colon; UO-31 renal; M19-MEL melanoma; XF 498 CNS; KM20L2 colon; SNB-78 CNS; HOP-18 NSCLC; RXF-631 renal.
What all share (test): DTP human tumour cell line panel, 48 h

From PubChem BioAssay (NCI) come the findings set out here.

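Five compound concentrations were applied to cells in 96-well plates for 48 hours; endpoints were derived by simple linear interpolation of the resulting dose-response curve. TGI is the concentration that stops growth completely.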

With `CC(=O)OC1CC2C(C)(C)OC(=O)CC(OC(C)=O)[C@]2(C)C2CCC3(C)C(=CCC3c3ccoc3)[C@]12C` (stereo not given in full), the TGI (usually the concentration giving total growth inhibition) is 96.4 µM in the assay with DMS 114 small cell lung; over 100 µM with OVCAR-4 ovarian; over 100 µM with LXFL 529 NSCLC; over 100 µM in the assay with OVCAR-5 ovarian; 41.1 µM with DMS 273 small cell lung; 87.1 µM in the assay on OVCAR-8 ovarian. The TGI with DLD-1 colon is 31.3 µM; in the assay with UO-31 renal, over 100 µM; in the assay with M19-MEL melanoma it was 52.3 µM; in the assay with XF 498 CNS it was 36 µM; in the assay on KM20L2 colon, over 100 µM; with SNB-78 CNS it was over 100 µM.
Regarding `O=c1[nH]cc(COCC(O)CO)c(=O)[nH]1` (stereo not given), the concentration for total growth inhibition (TGI) in the assay on DMS 114 small cell lung, with OVCAR-4 ovarian, in the assay on LXFL 529 NSCLC, in the assay on OVCAR-5 ovarian, with DMS 273 small cell lung and in the assay with OVCAR-8 ovarian was over 100 µM throughout. The total growth inhibition concentration (TGI) in the assay with DLD-1 colon, with UO-31 renal, in the assay with HOP-18 NSCLC, in the assay with M19-MEL melanoma, in the assay with XF 498 CNS and with KM20L2 colon was over 100 µM in each case. Besides, the TGI with RXF-631 renal and in the assay with SNB-78 CNS was over 100 µM each time.
`O=C1COc2cc3c(cc2N1)SCCC(=O)N3`: the concentration for total growth inhibition (TGI) with DMS 114 small cell lung, with OVCAR-4 ovarian, in the assay with LXFL 529 NSCLC, in the assay on DMS 273 small cell lung, with OVCAR-8 ovarian and in the assay on DLD-1 colon was over 100 µM in each case. Further, the total growth inhibition concentration (TGI) in the assay with UO-31 renal, in the assay with HOP-18 NSCLC, in the assay on M19-MEL melanoma, with XF 498 CNS and in the assay on RXF-631 renal was over 100 µM in each case.
As for `COc1ccc(-c2cc(=O)c3ccc(F)cc3[nH]2)cc1`, the TGI with DMS 114 small cell lung, in the assay on OVCAR-4 ovarian, in the assay with LXFL 529 NSCLC, with OVCAR-5 ovarian, with OVCAR-8 ovarian and in the assay on DLD-1 colon was over 100 µM each time. Besides, the concentration for total growth inhibition (TGI) in the assay on UO-31 renal, with HOP-18 NSCLC, with M19-MEL melanoma, in the assay on XF 498 CNS, with KM20L2 colon and in the assay with RXF-631 renal was over 100 µM in each case. In the assay on SNB-78 CNS, this compound gave a TGI of over 100 µM.
